From EPA's ToxRefDB 2

Legend:
mouse [1] = details: Carcinogenicity, cd1, Oral, Feed, dose end: 18 month, group: systemic
rat [2] = details: Combined chronic toxicity/carcinogenicity, sprague dawley, Oral, Feed, dose end: 24 month, group: systemic
rat [3] = details: Subchronic oral toxicity in rodents, sprague dawley, Feed, dose end: 90 day, group: systemic
rat [4] = details: Multigenerational reproductive toxicity study, sprague dawley, Oral, Feed, dose end: 2 generation
dog = details: Chronic toxicity, beagle, Oral, Capsule, dose end: 52 week, group: systemic
rat [5] = details: Combined chronic toxicity/carcinogenicity; fischer; Oral; Feed; dose end: 365 day; group: systemic; systemic / pathology gross / full gross necropsy / adenoma
mouse [6] = details: Combined chronic toxicity/carcinogenicity; other; Oral; Feed; dose end: 365 day; group: systemic; systemic / pathology gross / full gross necropsy / lymphoma malignant
mouse [7] = details: Subchronic oral toxicity in rodents, b6c3f1, Water, dose end: 13 week, group: systemic
[8] = systemic / hematology / anemia / anemia - nos + systemic / hematology / erythrocyte (rbc) count differential / erythrocyte (rbc) + systemic…
[9] = systemic / in life observation / clinical signs / fur (altered appearance) + systemic / pathology gross / penis / prolapse
[10] = systemic / hematology / erythrocyte (rbc) count differential / erythrocyte (rbc) + systemic / hematology / hematocrit (hct) / hematocrit (…
[11] = systemic / in life observation / clinical signs / fur (altered appearance) + systemic / in life observation / clinical signs / urine, …
[12] = group: offspring, systemic / in life observation / body weight / offspring (pup) weight
[13] = group: parental, systemic / pathology gross / spleen / discolored + systemic / pathology microscopic / spleen / congestion + systemic / pathology microscopic…
[14] = group: reproductive, reproductive / offspring survival early / litter size / litter size
[15] = systemic / clinical chemistry / cholesterol / cholesterol + systemic / clinical chemistry / bilirubin / total bilirubin + systemic / …
[16] = systemic / hematology / platelet / platelet + systemic / organ weight / spleen / absolute + systemic / organ weight / spleen / relative to …
[17] = systemic / in life observation / body weight / body weight + systemic / in life observation / clinical signs / emaciation + systemic / in …
[18] = systemic / pathology microscopic / nose / degeneration

SMILES: c1ccc(Nc2ccccc2)cc1 [Diphenylamine]
- LOAEL (mouse [1]; [8]): 368 mg/kg/day
- NOAEL (mouse [1]; [8]): 73.2 mg/kg/day
- LEL (mouse [1]; [9]): 73.2 mg/kg/day
- NEL (mouse [1]; [9]): < 73.2 mg/kg/day
- LOAEL (rat [2]; [10]): 138 mg/kg/day
- NEL (rat [2]; [10]): 7.5 mg/kg/day
- NOAEL (rat [2]; [10]): 24.9 mg/kg/day
- LEL (rat [2]; systemic / hematology / erythrocyte (rbc) count differential / erythrocyte (rbc) + systemic / pathology gross / spleen / discolored + …): 24.9 mg/kg/day
- LOAEL (rat [3]; [11]): 547 mg/kg/day
- NEL (rat [3]; [11]): 9.6 mg/kg/day
- NOAEL (rat [3]; [11]): 95.8 mg/kg/day
- LEL (rat [3]; systemic / pathology microscopic / spleen / hematopoietic cell proliferation erythrocytic): 95.8 mg/kg/day
- LEL (rat [4]; [12]): 115 mg/kg/day
- LOAEL (rat [4]; [12]): 115 mg/kg/day
- NEL (rat [4]; [12]): 40 mg/kg/day
- NOAEL (rat [4]; [12]): 40 mg/kg/day
- LEL (rat [4]; [13]): 40 mg/kg/day
- LOAEL (rat [4]; [13]): 40 mg/kg/day
- NEL (rat [4]; [13]): < 40 mg/kg/day
- NOAEL (rat [4]; [13]): < 40 mg/kg/day
- LEL (rat [4]; [14]): 399 mg/kg/day
- LOAEL (rat [4]; [14]): 399 mg/kg/day
- NEL (rat [4]; [14]): 115 mg/kg/day
- NOAEL (rat [4]; [14]): 115 mg/kg/day
- LOAEL (dog; [15]): 50 mg/kg/day
- NOAEL (dog; [15]): 10 mg/kg/day
- LEL (dog; [16]): 10 mg/kg/day
- NEL (dog; [16]): < 10 mg/kg/day

SMILES: NC(N)=O [Urea]
- LEL (rat [5]): 225 mg/kg/day
- LOAEL (rat [5]): > 225 mg/kg/day
- NEL (rat [5]): < 225 mg/kg/day
- NOAEL (rat [5]): ≥ 225 mg/kg/day
- LEL (mouse [6]): 675 mg/kg/day
- LOAEL (mouse [6]): > 675 mg/kg/day
- NEL (mouse [6]): < 675 mg/kg/day
- NOAEL (mouse [6]): ≥ 675 mg/kg/day

SMILES: ON=C1CCCCC1 [Cyclohexanone oxime]
- LOAEL (mouse [7]; [17]): > 1150 mg/kg/day
- NOAEL (mouse [7]; [17]): ≥ 1150 mg/kg/day
- LEL (mouse [7]; [18]): 132 mg/kg/day
- NEL (mouse [7]; [18]): < 132 mg/kg/day
